Results: PubChem BioAssay AID330 (DTP/NCI, 2004)
Values joined by “and” are separate entries in the source; they are usually repeats but may differ in a detail not shown here. Equal values may be shown once. Toxic doses and inconclusive results are not listed.

Test system: P388 leukemia ip, CD2F1 mice, survival T/C
Assay: NCI In Vivo Anticancer Drug Screen. Data for tumor model P388 Leukemia (intraperitoneal) in CD2F1 (CDF1) mice
Conditions: endpoint: median survival time, higher = longer survival
Outline: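 Mice carrying the transplanted tumor received test compound or vehicle. Survival was recorded in each group, and the value is the treated-group measurement divided by that of the vehicle-treated control group.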

[1] = dose: 50.0 mg/kg/injection, schedule: Q01DX005 (ip), vehicle: saline with Tween-80
[2] = dose: 100.0 mg/kg/injection, schedule: Q01DX009 (ip), vehicle: saline with Tween-80
[3] = dose: 200.0 mg/kg/injection, schedule: Q01DX009 (ip), vehicle: saline with Tween-80
[4] = dose: 25.0 mg/kg/injection, schedule: Q01DX001 (ip), vehicle: saline
[5] = dose: 50.0 mg/kg/injection, schedule: Q01DX001 (ip), vehicle: saline
[6] = dose: 100.0 mg/kg/injection, schedule: Q01DX001 (ip), vehicle: saline
[7] = dose: 100.0 mg/kg/injection, schedule: Q04DX003 (ip), vehicle: saline with Tween-80
[8] = dose: 200.0 mg/kg/injection, schedule: Q04DX003 (ip), vehicle: saline with Tween-80
[9] = dose: 400.0 mg/kg/injection, schedule: Q04DX003 (ip), vehicle: saline with Tween-80
[10] = dose: 100.0 mg/kg/injection, schedule: Q01DX005 (ip), vehicle: saline with Tween-80
[11] = dose: 200.0 mg/kg/injection, schedule: Q01DX005 (ip), vehicle: saline with Tween-80
[12] = dose: 50.0 mg/kg/injection, schedule: Q01DX005 (ip), vehicle: Klucel (hydroxypropylcellulose) (HPC)
[13] = dose: 100.0 mg/kg/injection, schedule: Q01DX005 (ip), vehicle: Klucel (hydroxypropylcellulose) (HPC)
[14] = dose: 200.0 mg/kg/injection, schedule: Q01DX005 (ip), vehicle: Klucel (hydroxypropylcellulose) (HPC)
[15] = dose: 25.0 mg/kg/injection, schedule: Q01DX009 (ip), vehicle: other
[16] = dose: 50.0 mg/kg/injection, schedule: Q01DX009 (ip), vehicle: other
[17] = dose: 200.0 mg/kg/injection, schedule: Q01DX009 (ip), vehicle: other
[18] = dose: 60.0 mg/kg/injection, schedule: Q01DX005 (ip), vehicle: saline with Tween-80
[19] = dose: 120.0 mg/kg/injection, schedule: Q01DX005 (ip), vehicle: saline with Tween-80
[20] = dose: 50.0 mg/kg/injection, schedule: Q04DX003 (ip), vehicle: saline with Tween-80
[21] = dose: 50.0 mg/kg/injection, schedule: Q01DX009 (ip), vehicle: saline with Tween-80

For `NS(=O)(=O)c1cc(S(=O)(=O)Cl)ccc1Cl`, the T/C (dose: 12.5 mg/kg/injection, schedule: Q01DX005 (ip), vehicle: saline with Tween-80) was 100 % of control, the T/C (dose: 25.0 mg/kg/injection, schedule: Q01DX005 (ip), vehicle: saline with Tween-80) was 100 % of control and the T/C [1] was 99 % of control and 94 % of control.
`CCOC(=O)C(C(C)=O)C(=O)c1ccccc1` (centres undefined) was tested, and the T/C (dose: 50.0 mg/kg/injection, schedule: Q01DX009 (ip), vehicle: saline + alcohol) was 95 % of control, the T/C (dose: 100.0 mg/kg/injection, schedule: Q01DX009 (ip), vehicle: saline + alcohol) was 101 % of control and the T/C (dose: 200.0 mg/kg/injection, schedule: Q01DX009 (ip), vehicle: saline + alcohol) was 96 % of control.
With `Cc1ccc(N=Cc2ccccc2O)c(Br)c1` the T/C (dose: 50.0 mg/kg/injection, schedule: Q01DX009 (ip), vehicle: Klucel (hydroxypropylcellulose) (HPC)) was 88 % of control, the T/C (dose: 100.0 mg/kg/injection, schedule: Q01DX009 (ip), vehicle: Klucel (hydroxypropylcellulose) (HPC)) was 89 % of control and the T/C (dose: 200.0 mg/kg/injection, schedule: Q01DX009 (ip), vehicle: Klucel (hydroxypropylcellulose) (HPC)) was 98 % of control.
In the case of `COC(=O)c1nc(N)nc(C(=O)OC)c1C(=O)c1ccncc1`, the T/C (dose: 60.0 mg/kg/injection, schedule: Q01DX005 (ip), vehicle: Klucel (hydroxypropylcellulose) (HPC)) is reported as 92 % of control and the T/C (dose: 120.0 mg/kg/injection, schedule: Q01DX005 (ip), vehicle: Klucel (hydroxypropylcellulose) (HPC)) is reported as 96 % of control.
With `Cc1cc2cc3c(C)cc(=O)oc3c(C)c2o1` the T/C [2] was 118 % of control, the T/C [3] was 112 % of control and the T/C (dose: 400.0 mg/kg/injection, schedule: Q01DX009 (ip), vehicle: saline with Tween-80) was 102 % of control.
For `NC(N)=N/N=C1C=C/C(=N/N=C(N)N)C/1`, the T/C [4] was 104 % of control, the T/C [5] was 100 % of control and the T/C [6] was 107 % of control. For the same compound, the T/C (dose: 200.0 mg/kg/injection, schedule: Q01DX001 (ip), vehicle: saline) was 94 % of control.
For `Cc1noc(NCc2ccccc2)c1C`, the T/C [7] was 104 % of control, the T/C [8] was 101 % of control and the T/C [9] was 100 % of control.
`O=C(CCCN1CCC2(CC1)C(=O)NCN2c1ccc(F)cc1)c1ccc(F)cc1` was tested, and the T/C [1] was 103 % of control, the T/C [10] was 95 % of control and the T/C [11] was 94 % of control.
In the case of `COC(=O)C(CP(C)(C)=O)C(N=C(C)C(F)(F)F)(c1ccccc1)c1ccccc1` (centres undefined), the T/C [12] is reported as 100 % of control, the T/C [13] is reported as 100 % of control and the T/C [14] is reported as 107 % of control.
In the case of `Brc1ccc(Nc2ccccn2)cc1`, the T/C (dose: 12.5 mg/kg/injection, schedule: Q01DX009 (ip), vehicle: other) is reported as 108 % of control, the T/C [15] is reported as 97 % of control and the T/C [16] is reported as 105 % of control. The T/C (dose: 100.0 mg/kg/injection, schedule: Q01DX009 (ip), vehicle: other) was 105 % of control and the T/C [17] was 106 % of control.
`COC(=O)c1c(-c2ccc(OC)c(OC)c2)cn(C)c1C` was tested, and the T/C [1] was 104 % of control, the T/C [10] was 96 % of control and the T/C [11] was 91 % of control.
With `COc1ccc2cc(C(=O)c3cc4ccc(OC)cc4oc3=O)c(=O)oc2c1` the T/C [18] was 104 % of control, the T/C [19] was 101 % of control and the T/C (dose: 240.0 mg/kg/injection, schedule: Q01DX005 (ip), vehicle: saline with Tween-80) was 96 % of control.
`CC(C)c1cccc(C(C)C)c1Oc1ccc([N+](=O)[O-])cc1[N+](=O)[O-]` was tested, and the T/C [20] was 94 % of control, the T/C [7] was 93 % of control and the T/C [8] was 92 % of control. For the same compound, the T/C [9] was 90 % of control.
In the case of `Nc1nc([Se]c2nc(N)nc3c2ncn3C2OC(CO)C(O)C2O)c2ncn(C3OC(CO)C(O)C3O)c2n1` (centres undefined), the T/C (dose: 25.0 mg/kg/injection, schedule: Q01DX005 (ip), vehicle: distilled water + Tween-80) is reported as 150 % of control, the T/C (dose: 50.0 mg/kg/injection, schedule: Q01DX005 (ip), vehicle: distilled water + Tween-80) is reported as 161 % of control and the T/C (dose: 100.0 mg/kg/injection, schedule: Q01DX005 (ip), vehicle: distilled water + Tween-80) is reported as 156 % of control.
In the case of `CSc1nc(NC2OCC(O)C(O)C2O)c(C=O)c(=O)n1C` (centres undefined), the T/C [18] is reported as 96 % of control and the T/C [19] is reported as 97 % of control.
For `CCCNC(=O)CCC(NS(=O)(=O)c1ccc(C)cc1)C(=O)O` (centres undefined), the T/C [12] was 100 % of control, the T/C [13] was 100 % of control and the T/C [14] was 98 % of control.
`COc1ccc2c(c1)C(=O)CC(COS(=O)(=O)c1ccc(C)cc1)C2` (centres undefined) was tested, and the T/C [21] was 107 % of control, the T/C [2] was 101 % of control and the T/C [3] was 99 % of control.
`O=[N+]([O-])c1ccc2nc3c4ccccc4c4ccccc4c3nc2c1` was tested, and the T/C (dose: 12.5 mg/kg/injection, schedule: Q01DX009 (ip), vehicle: saline with Tween-80) was 105 % of control, the T/C (dose: 25.0 mg/kg/injection, schedule: Q01DX009 (ip), vehicle: saline with Tween-80) was 116 % of control and the T/C [21] was 109 % of control and 117 % of control. The T/C [2] was 105 % of control and the T/C [3] was 104 % of control.
With `COC(=O)CCN(CCC(=O)OC)Cc1ccccc1` the T/C [20] was 101 % of control, the T/C [7] was 100 % of control and the T/C [8] was 100 % of control.
For `COc1ccc2nc3c(=O)[nH]c(=O)nc-3n(CC(O)C(O)C(O)CO)c2c1` (centres undefined), the T/C [4] was 104 % of control, the T/C [5] was 104 % of control and the T/C [6] was 107 % of control. For the same compound, the T/C (dose: 100.0 mg/kg/injection, schedule: Q04DX002 (ip), vehicle: saline) was 109 % of control.
`C(=C\c1cccs1)/c1ccnnc1` was tested, and the T/C (dose: 25.0 mg/kg/injection, schedule: Q01DX009 (ip), vehicle: saline) was 101 % of control, the T/C (dose: 50.0 mg/kg/injection, schedule: Q01DX009 (ip), vehicle: saline) was 99 % of control and the T/C (dose: 100.0 mg/kg/injection, schedule: Q01DX009 (ip), vehicle: saline) was 86 % of control and 96 % of control.
For `Cc1cnc2cc(Cl)ccc2c1NCCNCCO`, the T/C (dose: 50.0 mg/kg/injection, schedule: Q01DX005 (ip), vehicle: saline) was 119 % of control and the T/C (dose: 100.0 mg/kg/injection, schedule: Q01DX005 (ip), vehicle: saline) was 119 % of control.
In the case of `Cc1cccc(C(C)C)c1NC(=O)C(=O)C(C#N)c1ccc(CC#N)cc1` (centres undefined), the T/C [18] is reported as 99 % of control and the T/C [19] is reported as 98 % of control.
`CC1(C)C=C(C(Br)c2ccccc2)C(=O)c2ccccc21` (centres undefined) was tested, and the T/C [15] was 100 % of control, the T/C (dose: 44.0 mg/kg/injection, schedule: Q01DX009 (ip), vehicle: other) was 112 % of control and the T/C [16] was 118 % of control. The T/C (dose: 150.0 mg/kg/injection, schedule: Q01DX009 (ip), vehicle: other) was 121 % of control and the T/C [17] was 116 % of control.
With `CCOC(=O)c1cn[nH]c(=O)c1C` the T/C [21] was 100 % of control, the T/C [2] was 96 % of control and the T/C [3] was 104 % of control.
With `O=C(OCCc1c[nH]c2ccccc12)N(CCCl)CCCl` the T/C (dose: 1.56 mg/kg/injection, schedule: Q01DX009 (ip), vehicle: distilled water + Tween-80) was 101 % of control, the T/C (dose: 3.12 mg/kg/injection, schedule: Q01DX009 (ip), vehicle: distilled water + Tween-80) was 103 % of control and the T/C (dose: 6.25 mg/kg/injection, schedule: Q01DX009 (ip), vehicle: distilled water + Tween-80) was 105 % of control. For the same compound, the T/C (dose: 12.5 mg/kg/injection, schedule: Q01DX009 (ip), vehicle: distilled water + Tween-80) was 109 % of control and the T/C (dose: 25.0 mg/kg/injection, schedule: Q01DX009 (ip), vehicle: distilled water + Tween-80) was 111 % of control.
`Nc1nc(Cl)c2nnn(C3CC(O)C(CO)C3)c2n1` (centres undefined) was tested, and the T/C (dose: 6.25 mg/kg/injection, schedule: Q01DX005 (ip), vehicle: Klucel (hydroxypropylcellulose) (HPC)) was 116 % of control, the T/C (dose: 12.5 mg/kg/injection, schedule: Q01DX005 (ip), vehicle: Klucel (hydroxypropylcellulose) (HPC)) was 112 % of control and the T/C (dose: 25.0 mg/kg/injection, schedule: Q01DX005 (ip), vehicle: Klucel (hydroxypropylcellulose) (HPC)) was 119 % of control. For the same compound, the T/C [12] was 110 % of control.
